BindingDB's records for patent US20230322789 (Broadenbio, 2023)

Target: Mitogen-activated protein kinase kinase kinase kinase 1 (Homo sapiens, UniProt Q92918)
Assay: HPK1 Kinase Activity Inhibition Assay
Description: 1. HPK1 Kinase Activity Inhibition Test. The kinase activity of HPK1 is manifested as activity of autophosphorylation and phosphorylation of downstream substrates. In the process of autophosphorylation, additional substrates are not required, and ATP is consumed to generate ADP. […] Transfer 2 μL of 2×[…] kinase solution to 384 reaction plate, add 1 μL of the test compound to the 384 reaction plate (Greiner, 784075), centrifuge for 1 minute (1000 rpm/min), incubate at 25° C. for 10 minutes. […] of the 4×ATP mixture to a 384 reaction plate, centrifuge for 1 minute (1000 rpm/mm), and incubate at 25° C. for 60 minutes. In the reaction system, the final concentration of DMSO was […]. Transfer 4 μL of ADP-Glo to a 384 reaction plate, centrifuge for 1 minute (1000 rpm/min), and incubate at 25° C. for 40 minutes. Transfer 8 μL detection solution to a 384 reaction plate, centrifuge for 1 minute (1000 rpm/min), and incubate at 25° C. for 40 minutes. The […] signal was read using a Biotek multi-function plate reader, and the […] (half inhibitory concentration) of the compound was obtained using a four-coefficient nonlinear fitting formula.

Mitogen-activated protein kinase kinase kinase kinase 1, sequence (Q92918 whole entry): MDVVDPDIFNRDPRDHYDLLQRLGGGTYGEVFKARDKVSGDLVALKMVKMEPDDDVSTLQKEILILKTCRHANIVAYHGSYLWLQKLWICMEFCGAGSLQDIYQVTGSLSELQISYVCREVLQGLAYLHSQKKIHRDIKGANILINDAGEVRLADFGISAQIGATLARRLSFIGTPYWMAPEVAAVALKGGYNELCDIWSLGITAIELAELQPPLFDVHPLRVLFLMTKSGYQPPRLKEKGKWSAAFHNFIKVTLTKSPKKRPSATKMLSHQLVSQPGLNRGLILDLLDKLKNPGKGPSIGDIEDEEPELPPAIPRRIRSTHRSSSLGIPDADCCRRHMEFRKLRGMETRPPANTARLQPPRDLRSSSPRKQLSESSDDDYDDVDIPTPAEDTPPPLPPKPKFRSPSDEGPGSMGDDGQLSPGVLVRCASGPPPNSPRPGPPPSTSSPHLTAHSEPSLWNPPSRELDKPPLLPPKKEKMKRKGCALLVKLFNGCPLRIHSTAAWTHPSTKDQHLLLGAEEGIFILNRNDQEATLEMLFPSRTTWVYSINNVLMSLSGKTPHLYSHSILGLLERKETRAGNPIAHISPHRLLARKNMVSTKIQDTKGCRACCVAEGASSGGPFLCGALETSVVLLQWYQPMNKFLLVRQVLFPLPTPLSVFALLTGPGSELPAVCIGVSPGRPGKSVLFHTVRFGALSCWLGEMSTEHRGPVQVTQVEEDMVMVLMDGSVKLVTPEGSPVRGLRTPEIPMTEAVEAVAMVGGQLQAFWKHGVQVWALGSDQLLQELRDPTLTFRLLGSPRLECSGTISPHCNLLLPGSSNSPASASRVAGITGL

IC50 [nM]	SMILES
< 50	Cc1cccc(F)c1-n1nc2c(-c3ccc(N4CCN5C(=O)OCC5C4)nc3)n[nH]c2cc1=O (configuration not stated) [US20230322789, Compound 129]
< 50	CCc1cccc(F)c1-n1nc2c(-c3ccc(N4CCN(CC(C)(C)O)CC4)cc3)n[nH]c2cc1=O [US20230322789, Compound 116]
